According to PubChem BioAssay (NCI):
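Step 1: Grow cells in 96-well plates. Step 2: Expose to compound for 48 hours at 5 concentrations. Step 3: Interpolate endpoints linearly; if unreached, use highest concentration. GI50 = concentration required for 50% inhibition of growth. TGI denotes the concentration required for complete inhibition of growth.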

Columns and labels:
Test in all cases: DTP human tumour cell line panel, 48 h
CCRF-CEM leukemia = test system: CCRF-CEM leukemia
U251 CNS = test system: U251 CNS
TK-10 renal = test system: TK-10 renal
UO-31 renal = test system: UO-31 renal
SN12C renal = test system: SN12C renal
SW-620 colon = test system: SW-620 colon
HCC-2998 colon = test system: HCC-2998 colon
ACHN renal = test system: ACHN renal
MALME-3M melanoma = test system: MALME-3M melanoma
RPMI-8226 leukemia = test system: RPMI-8226 leukemia

Structure (SMILES)	GI50 (CCRF-CEM leukemia)	TGI (CCRF-CEM leukemia)	GI50 (U251 CNS)	TGI (U251 CNS)	GI50 (TK-10 renal)	TGI (TK-10 renal)	GI50 (UO-31 renal)	TGI (UO-31 renal)	GI50 (SN12C renal)	TGI (SN12C renal)	GI50 (SW-620 colon)	TGI (SW-620 colon)	GI50 (HCC-2998 colon)	TGI (HCC-2998 colon)	GI50 (ACHN renal)	TGI (ACHN renal)	GI50 (MALME-3M melanoma)	TGI (MALME-3M melanoma)	GI50 (RPMI-8226 leukemia)	TGI (RPMI-8226 leukemia)
O=C(OCc1ccc2cccc(O)c2n1)N1CCN(C(=O)c2cc3cc(F)ccc3[nH]2)CC1	0.242 µM	0.995 µM	1.41 µM	2.74 µM	1.77 µM	3.16 µM	0.358 µM	1.93 µM	1.21 µM	2.49 µM	0.42 µM	1.91 µM	1.69 µM	3.26 µM	0.615 µM	1.92 µM	1.46 µM	2.78 µM	0.251 µM	0.787 µM
CC1=Nc2ccccc2C1C(Cc1ccccc1N)c1c(C)[nH]c2ccccc12 (stereo not given)	–	47.2 µM	–	32.4 µM	–	30.8 µM	–	31.8 µM	–	33.6 µM	–	34.7 µM	–	30.2 µM	–	30.1 µM	–	31 µM	–	52.4 µM
COc1ccc(C(=O)c2cc(OC)c(C)c(OC)c2)cc1OC(=O)CCl	0.331 µM	> 100 µM	0.415 µM	> 45.3 µM	17.2 µM	> 100 µM	0.628 µM	74 µM	0.638 µM	37.1 µM	0.211 µM	> 100 µM	0.633 µM	19.3 µM	0.7 µM	35.5 µM	0.572 µM	48.1 µM	0.337 µM	14.1 µM
CCOc1nc(-c2ccccc2)cc2c(O)c(-c3nnco3)[nH]c(=O)c12	3.04 µM	> 100 µM	4.41 µM	> 43.7 µM	4.59 µM	35.2 µM	2.11 µM	> 100 µM	3.27 µM	> 100 µM	3.6 µM	> 100 µM	5.57 µM	> 100 µM	5.02 µM	> 100 µM	7.58 µM	> 100 µM	4.11 µM	> 100 µM
COc1ccc(OC)c(NC(=O)C(=O)NNC(=O)c2sc(NNC(C)=O)nc2C)c1	–	45.2 µM	–	> 100 µM	–	> 100 µM	–	> 100 µM	–	> 100 µM	–	46.6 µM	–	> 100 µM	–	96.1 µM	–	> 100 µM	–	> 100 µM
Cc1c2cccnc2c(C)c2c1c1cc(CO)ccc1n2C	1.87 µM	45.7 µM	1.93 µM	11 µM	2.57 µM	7.77 µM	1.41 µM	10.5 µM	2.08 µM	40.3 µM	1.25 µM	14.5 µM	3.38 µM	13.9 µM	0.937 µM	6.89 µM	1.93 µM	7.82 µM	2.09 µM	7.3 µM
CCOC(=O)/C=C/C(C(=O)/C=C/c1ccc(OC2CCCCO2)c(OC)c1)=C(O)\C=C\c1ccc(OC2CCCCO2)c(OC)c1 (stereo not given)	2.69 µM	8.35 µM	3.36 µM	12.6 µM	2.84 µM	9.21 µM	2.63 µM	7.56 µM	2.16 µM	4.96 µM	3.65 µM	> 100 µM	9.53 µM	21.6 µM	3.61 µM	12.5 µM	2.07 µM	5.9 µM	4.13 µM	17.8 µM
COc1ccc2c(c1)C(C)Cc1c(Cl)ncnc1N2C (stereo not given)	2.14 µM	> 55.8 µM	0.478 µM	> 86.4 µM	1.06 µM	18.8 µM	0.364 µM	42 µM	1.29 µM	23.6 µM	0.377 µM	17.8 µM	0.402 µM	14.3 µM	0.852 µM	> 100 µM	0.294 µM	3.63 µM	0.629 µM	16 µM
COc1ccc2c(c1)CCC1C2CC[C@@]2(C)C1CC1=CC(COC(C)=O)C3C(=O)c4ccccc4C(=O)C3C12 (stereo not given in full)	> 100 µM	> 100 µM	> 100 µM	> 100 µM	> 100 µM	> 100 µM	61.7 µM	> 100 µM	> 100 µM	> 100 µM	> 100 µM	> 100 µM	> 100 µM	> 100 µM	47.9 µM	> 100 µM	> 100 µM	> 100 µM	51.2 µM	> 100 µM
CNCCNc1c2c(c(NCCNC)c3c(CN(C)C)c[nH]c13)C(=O)c1ccccc1C2=O	0.716 µM	34.2 µM	2.95 µM	13.8 µM	7.11 µM	15.9 µM	3 µM	14.4 µM	0.788 µM	7.47 µM	1.31 µM	11 µM	1.36 µM	5.37 µM	3.52 µM	14.4 µM	6.73 µM	15.5 µM	0.938 µM	5.2 µM
